Experimental data reported in patent publication US10995091B2 (Proximagen, LLC, priority 2010, dated 2021).

The compounds below were run against T1, Human CXCR4 transfected HEK293 cells (Homo sapiens, UniProt P61073) (assay: CXCR4 functional calcium assay (calcium flux FLIPR, antagonism of SDF1 response)). Settings: CXCR4 functional activity, antagonism of SDF1 (EC50 concentration), read-out: CXCR4 fKi.
T1 construct: expressed in transfected cells; host or cells: HEK293
Format: cell-based
In short: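 HEK293 cells stably transfected with human CXCR4 were loaded with 2 μM Fluo-4 AM in HBSS containing 2.5 mM probenecid, 0.1% BSA and 10 mM HEPES at pH 7.4 and 37° C. Compound was added first, then SDF1 at its EC50 concentration, and intracellular calcium fluorescence was followed on a FLIPR. Antagonist dose-response curves were fitted.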

T1 sequence (P61073 whole entry): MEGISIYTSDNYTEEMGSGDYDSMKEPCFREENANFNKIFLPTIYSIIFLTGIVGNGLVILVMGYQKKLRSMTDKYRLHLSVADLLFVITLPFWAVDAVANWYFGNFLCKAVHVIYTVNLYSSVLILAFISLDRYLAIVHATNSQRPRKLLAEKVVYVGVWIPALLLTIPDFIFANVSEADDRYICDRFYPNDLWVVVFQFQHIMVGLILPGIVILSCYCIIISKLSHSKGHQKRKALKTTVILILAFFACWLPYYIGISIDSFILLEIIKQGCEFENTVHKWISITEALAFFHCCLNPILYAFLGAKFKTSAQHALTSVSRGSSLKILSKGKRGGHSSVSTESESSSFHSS

| Compound | Ki [nM] |
| --- | --- |
| CC(C)N1CCC(N2CCCN(c3cccc(-c4cc5cccnc5[nH]4)n3)CC2)CC1 [Example 99, 1-[1-(Propan-2-yl)piperidin-4-yl]-4-(6-{1H-pyrrolo[2,3-b]pyridine-2-yl}pyridine-2-yl)-1,4-diazepane] | 20 to 100 |
| CC(C)N1CCC(N2CCCN(c3cccc(C(=O)NCCc4ccccn4)n3)CC2)CC1 [Example 46, 6-{4-[1-(Propan-2-yl)piperidin-4-yl]-1,4-diazepan-1-yl}-N-[2-(pyridin-2-yl)ethyl]pyridine-2-carboxamide] | 20 to 100 |
| CC(C)N1CCC(N2CCCN(c3cccc(-c4nc5ccccc5s4)n3)CC2)CC1 [Example 151, 2-(6-{4-[1-(Propan-2-yl)piperidin-4-yl]-1,4-diazepan-1-yl}pyridine-2-yl)-1,3-benzothiazole] | 100 to 500 |
| O=C(NC1CCOCC1)c1cccc(N2CCCN(C3CCN(Cc4ccccc4Cl)CC3)CC2)n1 [Example 52, 6-(4-{1-[(2-Chlorophenyl)methyl]piperidin-4-yl}-1,4-diazepan-1-yl)-N-(oxan-4-yl)pyridine-2-carboxamide] | 20 to 100 |
| CC(C)CNC(=O)c1cccc(N2CCCN(C3CCN(C(C)C)CC3)CC2)n1 [Example 6, N-(2-Methylpropyl)-6-{4-[1-(propan-2-yl)piperidin-4-yl]-1,4-diazepan-1-yl}pyridine-2-carboxamide] | 100 to 500 |
| [2H]C1([2H])CCN(c2cccc(C(=O)Nc3ccncc3)n2)CCN1C1CCN(C2CCCC2)CC1 [Example 191, 6-[4-(1-Cyclopentylpiperidin-4-yl)-5,5-dihydrogenio-1,4-diazepan-1-yl]-N-(pyridin-4-yl)pyridine-2-carboxamide] | < 20 |
| CC(C)N1CCC(N2CCCN(c3cccc(C(=O)NC4CCOCC4)n3)CC2)CC1 [Example 2, N-(Oxan-4-yl)-6-{4-[1-(propan-2-yl)piperidin-4-yl]-1,4-diazepan-1-yl}pyridine-2-carboxamide] | 100 to 500 |
| Cc1cc(C(=O)NCC2CC2)nc(N2CCCN(C3CCN(Cc4ccccc4Cl)CC3)CC2)c1 [Example 268, 6-(4-{1-[(2-Chlorophenyl)methyl]piperidin-4-yl}-1,4-diazepan-1-yl)-N-(cyclopropylmethyl)-4-methylpyridine-2-carboxamide] | 100 to 500 |
| COCCNC(=O)c1cccc(N2CCCN(C3CCN(C(C)C)CC3)CC2)n1 [Example 14, N-(2-Methoxyethyl)-6-{4-[1-(propan-2-yl)piperidin-4-yl]-1,4-diazepan-1-yl}pyridine-2-carboxamide] | 20 to 100 |
| Cc1nc(-c2cccc(N3CCCN(C4CCN(C(C)C)CC4)CC3)n2)no1 [Example 153, 1-[6-(5-Methyl-1,2,4-oxadiazol-3-yl)pyridin-2-yl]-4-[1-(propan-2-yl)piperidin-4-yl]-1,4-diazepane] | 500 to 1000 |
| CC(C)N1CCC(N2CCCN(c3cccc(-c4nc5cnccc5[nH]4)n3)CC2)CC1 [Example 106, 1-(6-{3H-Imidazo[4,5-c]pyridin-2-yl}pyridin-2-yl)-4-[1-(propan-2-yl)piperidin-4-yl]-1,4-diazepane] | < 20 |
| CCc1cn(C)c(-c2cccc(N3CCCN(C4CCN(C(C)C)CC4)CC3)n2)n1 [Example 124, 1-[6-(4-Ethyl-1-methyl-1H-imidazol-2-yl)pyridine-2-yl]-4-[1-(propan-2-yl)piperidin-4-yl]-1,4-diazepane] | 20 to 100 |
| CCCNC(=O)c1cccc(N2CCCN(C3CCN(C(C)C)CC3)CC2)n1 [Example 5, 6-{4-[1-(Propan-2-yl)piperidin-4-yl]-1,4-diazepan-1-yl}-N-propylpyridine-2-carboxamide] | 20 to 100 |
| CC(C)N1CCC(N2CCCN(c3cccc(-c4cc5ccccc5[nH]4)n3)CC2)CC1 [Example 100, 2-(6-{4-[1-(Propan-2-yl)piperidin-4-yl]-1,4-diazepan-1-yl}pyridine-2-yl)-1H-indole] | 20 to 100 |
| COCC(C)N1CCC(N2CCCN(c3cccc(C(=O)NCC4CC4)n3)CC2)CC1 (centres unmarked) [Example 127, N-(Cyclopropylmethyl)-6-{4-[1-(1-methoxypropan-2-yl)piperidin-4-yl]-1,4-diazepan-1-yl}pyridine-2-carboxamide] | 20 to 100 |
| O=C(NCc1ccncc1)c1cccc(N2CCCN(C3CCN(Cc4ccccc4Cl)CC3)CC2)n1 [Example 56, 6-(4-{1-[(2-Chlorophenyl)methyl]piperidin-4-yl}-1,4-diazepan-1-yl)-N-(pyridine-4-ylmethyl)pyridine-2-carboxamide] | < 20 |
| Cc1nc(-c2cccc(N3CC[C@@H](NC[C@H]4CCN(C5CCCC5)C4)C3)n2)[nH]c1C1CC1 [Example 225, (3R)—N-{[(3R)-1-Cyclopentylpyrrolidin-3-yl]methyl}-1-[6-(4-cyclopropyl-5-methyl-1H-imidazol-2-yl)pyridin-2-yl]pyrrolidin-3-amine] | < 20 |
| CC(C)N1CCC(N2CCCN(c3cccc(-c4ncc(C(C)(C)C)[nH]4)n3)CC2)CC1 [Example 113, 1-[6-(4-tert-Butyl-1H-imidazol-2-yl)pyridine-2-yl]-4-[1-(propan-2-yl)piperidin-4-yl]-1,4-diazepane] | 100 to 500 |

| Compound | Ki [nM] |
| --- | --- |
| CC(C)N1CCC(N2CCCN(c3cccc(-c4nc5ccc(C#N)cc5[nH]4)n3)CC2)CC1 [Example 149, 2-(6-{4-[1-(Propan-2-yl)piperidin-4-yl]-1,4-diazepan-1-yl}pyridine-2-yl)-1H-1,3-benzodiazole-6-carbonitrile] | < 20 |
| CC(C)N1CCC(N2CCCN(c3cccc(-c4nc5ccc(F)cc5[nH]4)n3)CC2)CC1 [Example 147, 6-Fluoro-2-(6-{4-[1-(propan-2-yl)piperidin-4-yl]-1,4-diazepan-1-yl}pyridine-2-yl)-1H-1,3-benzodiazole] | 20 to 100 |
| CC(C)N1CCC(N2CCCN(c3cccc(-c4noc(-c5ccccc5)n4)n3)CC2)CC1 [Example 164, 1-[6-(5-Phenyl-1,2,4-oxadiazol-3-yl)pyridine-2-yl]-4-[1-(propan-2-yl)piperidin-4-yl]-1,4-diazepane] | 20 to 100 |
| CCCc1cnc(-c2cccc(N3CCCN(C4CCN(C(C)C)CC4)CC3)n2)[nH]1 [Example 109, 1-[1-(Propan-2-yl)piperidin-4-yl]-4-[6-(4-propyl-1H-imidazol-2-yl)pyridine-2-yl]-1,4-diazepane] | 20 to 100 |
| Cc1cc2nc(-c3cccc(N4CCCN(C5CCN(C(C)C)CC5)CC4)n3)[nH]c2cc1C [Example 146, 5,6-Dimethyl-2-(6-{4-[1-(propan-2-yl)piperidin-4-yl]-1,4-diazepan-1-yl}pyridine-2-yl)-1H-1,3-benzodiazole] | 100 to 500 |
| Cc1nc(-c2cccc(NCCNC3CCN(C(C)C)CC3)n2)[nH]c1C1CC1 [Example 236, N-(2-{[6-(5-Cyclopropyl-4-methyl-1H-imidazol-2-yl)pyridin-2-yl]amino}ethyl)-1-(propan-2-yl)piperidin-4-amine] | 100 to 500 |
| CC(C)N1CCC(N2CCCN(c3cccc(C(=O)NCCO)n3)CC2)CC1 [Example 12, N-(2-Hydroxyethyl)-6-{4-[1-(propan-2-yl)piperidin-4-yl]-1,4-diazepan-1-yl}pyridine-2-carboxamide] | 100 to 500 |
| O=C(NCC1CC1)c1cccc(N2CCC(NCc3ccccc3Cl)CC2)n1 [Example 248, 6-(4-{[(2-Chlorophenyl)methyl]amino}piperidin-1-yl)-N-(cyclopropylmethyl)pyridine-2-carboxamide] | 500 to 1000 |
| [2H]C1([2H])CCN(c2cccc(C(=O)Nc3ccncc3)n2)CCN1C1CCN(C(C)C)CC1 [Example 186, 6-{5,5-Dihydrogenio-4-[1-(propan-2-yl)piperidin-4-yl]-1,4-diazepan-1-yl}-N-(pyridin-4-yl)pyridine-2-carboxamide] | < 20 |
| CC(C)N1CCC(N2CCCN(c3cccc(-c4nc5cc(F)c(F)cc5[nH]4)n3)CC2)CC1 [Example 145, 5,6-Difluoro-2-(6-{4-[1-(propan-2-yl)piperidin-4-yl]-1,4-diazepan-1-yl}pyridine-2-yl)-1,3-benzodiazole] | < 20 |
| CCCCc1cnc(-c2cccc(N3CCCN(C4CCN(C(C)C)CC4)CC3)n2)o1 [Example 171, 1-[6-(5-Butyl-1,3-oxazol-2-yl)pyridin-2-yl]-4-[1-(propan-2-yl)piperidin-4-yl]-1,4-diazepane] | 500 to 1000 |
| Cc1cc(NC(=O)c2cccc(N3CCCN(C4CCN(Cc5ccccc5Cl)CC4)CC3)n2)cc(C)n1 [Example 85, 6-(4-{1-[(2-Chlorophenyl)methyl]piperidin-4-yl}-1,4-diazepan-1-yl)-N-(2,6-dimethylpyridin-4-yl)pyridine-2-carboxamide] | 20 to 100 |
| CCCCNC(=O)c1cccc(N2CCCN(CC3CN(C(C)C)CCO3)CC2)n1 (centres unmarked) [Example 250, N-Butyl-6-(4-{[4-(propan-2-yl)morpholin-2-yl]methyl}-1,4-diazepan-1-yl)pyridine-2-carboxamide] | 20 to 100 |
| O=C(NCc1cccnc1)c1cccc(N2CCCN(C3CCN(Cc4ccccc4Cl)CC3)CC2)n1 [Example 55, 6-(4-{1-[(2-Chlorophenyl)methyl]piperidin-4-yl}-1,4-diazepan-1-yl)-N-(pyridine-3-ylmethyl)pyridine-2-carboxamide] | 20 to 100 |
| CC(C)N1CCC(N2CCCN(c3cccc(C(=O)Nc4ccncc4)n3)CC2C)CC1 (centres unmarked) [Example 193, 6-{3-Methyl-4-[1-(propan-2-yl)piperidin-4-yl]-1,4-diazepan-1-yl}-N-(pyridin-4-yl)pyridine-2-carboxamide] | < 20 |
| O=C(Nc1ccncc1)c1cccc(N2CCCN(C3CCC(N4CCCC4C(F)(F)F)CC3)CC2)n1 (centres unmarked) [Example 257, N-(Pyridin-4-yl)-6-(4-{4-[2-(trifluoromethyl)pyrrolidin-1-yl]cyclohexyl}-1,4-diazepan-1-yl)pyridine-2-carboxamide] | 500 to 1000 |
| [2H]C1([2H])CCN(C2CCN(C3CCCC3)CC2)CCN1c1cccc(C(=O)Nc2ccncc2)n1 [Example 179, 6-[4-(1-Cyclopentylpiperidin-4-yl)-7,7-dihydrogenio-1,4-diazepan-1-yl]-N-(pyridine-4-yl)pyridine-2-carboxamide] | < 20 |
